Series [1] deals with a variety of cancer cell lines. On the set-up: method as in PMID 27720292. The conditions noted are these: cited from earlier work.
Series [2] has as its system HCT116 colon cancer cell line. As to the kind of experiment: MTT cell viability assay, HCT116. Conditions: Homo sapiens, HCT-116, treatment 72 h and 96 h, mean ± SD of three experiments. The class given is cell-based. The procedure: (§1) The human HCT116 colon cancer cell line and PC-3 prostate cancer cell line were obtained from the American Type Cell Culture (ATCC, Bethesda, Md). Both cell lines were grown in 75 cm^2 culture flasks at 37 °C in 5% CO2 using Roswell Park Memorial Institute 1640 medium (RPMI 1640, Gibco) and Dulbecco’s modified Eagle’s medium F/12 (DMEM/F-12, Gibco), respectively, containing 10% fetal bovine serum (FBS, Gibco). To test the inhibitory activities of compounds using a cell-based assay, MTT assay was performed for cell viability, as described previously. Briefly, HCT116 cells were plated at a density of 1500 per well, while PC-3 cells were plated at a density of 750 per well in a 96-well plate. After 24 h, cells were treated with the indicated compounds in a dose-dependent manner for 72 h and 96 h (all tested compounds provided clear solutions). MTT [3-(4,5-dimethylthiazol-2-yl)-2,5-diphenyltetrazolium bromide] (Sigma M-5655) was added at a final concentration of 0.5 mg/mL directly to each well for 4 h at 37 °C. The medium was aspirated, and the blue MTT formazan precipitate was dissolved in dimethyl sulfoxide (DMSO). Absorbance was determined in a Powerwave microplate spectrophotometer (Biotek Instruments, Inc.) at 540 nm. Viable cell numbers were determined by tetrazolium conversion to its formazan dye. The IC50 was calculated by Microsoft Excel equation and confirmed by GraphPad Prism (7.0). Each experiment was performed in triplicate and mean values ± SD are reported.

The subject of series [3] is normal human fibroblasts (WI-38). The series is described as follows: MTT cytotoxicity towards normal fibroblasts. The series is classed as cell-based. The conditions noted are these: for cytotoxicity to normal cells in words / IC50: WI-38; for IC50: MTT, normal human fibroblasts; for Selectivity Index HCT116: SI = IC50 non cancer cell (WI-38)/IC50 cancer cell (HCT116); for Selectivity Index PC-3: SI = IC50 non cancer cell (WI-38)/IC50 cancer cell (PC-3). Here is the method:
as §1
Figure 1 Dose-response curves for the administration of 14b, 26b, 35b on HCT116, PC-3 and WI-38 cells, as assessed by the MTT assay. Results are expressed as a percentage of controls. Statistical analysis was performed in triplicate determination at p < 0.05.

Series [4] relates to PC-3 prostate cancer cell line. The series is described as follows: MTT cell viability assay, PC-3. The class given is cell-based. The conditions noted are these: Homo sapiens, treatment 72 h and 96 h, mean ± SD of three experiments. The procedure: as §1
(Tetrazolium dyes change colour on reduction, which living cells bring about.)

Series [5] has as its system PC-3 cells. As to the kind of experiment: DNA staining (propidium iodide) and flow cytometric cell cycle analysis. The series is classed as cell-based, human. The conditions noted are these: for Cell cycle phase distribution G0/G1 / Cell cycle phase distribution G2/M / Cell cycle phase distribution S: compound at its IC50. The procedure: (§2) For cell cycle analysis, cell culture supernatants and attached cells were collected, centrifuged, washed in PBS, fixed in 50% ethanol and stained with an RNase-containing propidium iodide solution (50 μg/mL) (all reagents from Sigma). For cell apoptosis assay, cells were harvested and stained with Annexin V binding buffer, Annexin V–FITC and 7-AAD (Annexin V-FITC Apoptosis Detection Kit, BD Systems). DNA content was analyzed on a BD Accuri C6 Flow Cytometer using the BD CSampler software (BD Biosciences, USA). Non-apoptotic events were used to calculate the percentage of cells distributed in each phase. A p value < 0.05 was considered to be statistically significant (Student’s t-test).
Background: A flow cytometer gives signals particle by particle.

The test system of series [6] is PC-3 cells. The series is described as follows: Annexin V-7AAD apoptosis assay. The class given is cell-based, human. Conditions: for apoptotic nuclei: PC-3, 72 h, compound at its IC50, AnnexinV-7AAD staining, vehicle 3.5%. Here is the method:
as §2

[7] abbreviates: positive control at 25 nM, PC-3.

Turning to `COc1cc(Nc2nccc3c(-c4ccccc4)n[nH]c23)cc(OC)c1OC` [3-phenyl-7-(3,4,5-trimethoxyphenyl)aminopyrazolo[3,4-c]pyridine], the IC50 values result in series [1] is “medium to high nM range”.

As a reminder, the IC50 is the midpoint of a concentration-inhibition curve. The low end stands for inhibition by little substance, the high end for a need for much substance. Usually melting point stands for the temperature of the solid-liquid transition. In turn, `c1ccc(Nc2nccc3c(-c4ccccc4)c[nH]c23)cc1` [14a, Ν,3-Diphenyl-1H-pyrrolo[2,3-c]pyridin-7-amine] gave a melting point of 139 to 140 °C. The half-maximal inhibitory concentration (IC50) in series [2] is 5 ± 0.1 µM. For the same compound, in series [3], the “cytotoxicity to normal cells in words” value was “rather cytotoxic to normal cells” and the IC50 is below 10 µM. In series [4], this compound gave an IC50 of 0.215 ± 0.025 µM.

In turn, `Fc1cccc(-c2c[nH]c3c(Nc4ccccc4)nccc23)c1` [14b, 3-(3-Fluorophenyl)-Ν-phenyl-1H-pyrrolo[2,3-c]pyridin-7-amine] had a melting point of 168 to 169 °C. Besides, half-maximal inhibition in series [2] (IC50) was put at 0.09 ± 0.01 µM. In series [5] (PC-3, 72 h), the “cell-cycle perturbation in words” value is reported as “statistically significant accumulation of PC-3 cells at G2/M phase”, the “Cell cycle phase distribution G0/G1” value is reported as 48.7 (±0.6) %, the “Cell cycle phase distribution G2/M” value is listed as 30.8 (±0.8) % and the “Cell cycle phase distribution S” value is listed as 20.5 (±1.4) %. In series [3], the “Selectivity Index HCT116” value was determined as 222, the “Selectivity Index PC-3” value amounted to 363, the “cytotoxicity to normal cells in words” value was “practically non-toxic against the normal cell line” and the IC50 was determined as 20 ± 0.4 µM. For the same compound, the selectivity index result in series [3] (normal cell line WI-38 vs both cancer cell lines) is given as “higher than 200”. Further, the half-inhibitory concentration (IC50) in series [4] was 0.055 ± 0.015 µM. The same compound gave an apoptotic nuclei in series [6] of 26.5%.

Compound `COc1cc(Nc2nccc3c(-c4ccccc4)c[nH]c23)cc(OC)c1OC` [14c, N-(3,4,5-trimethoxyphenyl)-3-phenyl-1H-pyrrolo[2,3-c]pyridin-7-amine] registered a melting point of 153 to 154 °C. The compound also had an IC50 in series [2] of 0.72 ± 0.09 µM. Moreover, the half-inhibitory concentration (IC50) in series [3] was below 10 µM. The compound further came in with an IC50 in series [4] of 0.47 ± 0.12 µM.

`COc1cc(Nc2nccc3c(-c4cccc(F)c4)c[nH]c23)cc(OC)c1OC` [14d, 3-(3-Fluorophenyl)-N-(3,4,5-trimethoxyphenyl)-1H-pyrrolo[2,3-c]pyridin-7-amine] showed a melting point of 149 to 150 °C. The same compound came in with an IC50 in series [2] of 3.9 ± 0.3 µM. The IC50 in series [3] was below 10 µM. In series [4], the IC50 was determined as 1.45 ± 0.25 µM.

The compound `CN1CCN(c2nccc3c(-c4ccccc4)c[nH]c23)CC1` [14e, 7-(4-Methylpiperazin-1-yl)-3-phenyl-1H-pyrrolo[2,3-c]pyridine] yielded a melting point of 220 to 221 °C. In series [2], this compound registered an IC50 of 2.85 ± 0.05 µM. The IC50 in series [3] is below 10 µM. In series [4], this compound gave an IC50 of 1.75 ± 0.25 µM.

For the compound `COc1ccc(Cn2cc(-c3ccccc3)c3ncnc(Nc4cc(OC)c(OC)c(OC)c4)c32)cc1` [24c, 5-(4-Methoxybenzyl)-N-(3,4,5-trimethoxyphenyl)-7-phenyl-5H-pyrrolo[3,2-d]pyrimidin-4-amine], the melting point lay in the range of 187 to 188 °C. In series [2], this compound gave an IC50 of 4.5 ± 0.25 µM. For the same compound, the IC50 in series [4] was found to be 2.25 ± 0.35 µM.

Compound `COc1ccc(Cn2cc(-c3cccc(F)c3)c3ncnc(Nc4cc(OC)c(OC)c(OC)c4)c32)cc1` [24d, 7-(3-Fluorophenyl)-5-(4-methoxybenzyl)-N-(3,4,5-trimethoxyphenyl)-5H-pyrrolo[3,2-d]pyrimidin-4-amine] showed a melting point of 96 to 97 °C. In addition, the IC50 in series [2] is above 10 µM. Moreover, the IC50 in series [4] was above 10 µM.

As to `COc1ccc(Cn2cc(-c3ccccc3)c3ncnc(N4CCN(C)CC4)c32)cc1` [25a, 5-(4-Methoxybenzyl)-4-(4-methylpiperazin-1-yl)-7-phenyl-5H-pyrrolo[3,2-d]pyrimidine], the melting point fell in the range of 150 to 151 °C. The compound also displayed a half-maximal inhibitory concentration (IC50) in series [2] above 10 µM. The compound also displayed an IC50 in series [4] above 10 µM.

Compound `COc1ccc(Cn2cc(-c3cccc(F)c3)c3ncnc(N4CCN(C)CC4)c32)cc1` [25b, 7-(3-Fluorophenyl)-5-(4-methoxybenzyl)-4-(4-methylpiperazin-1-yl)-5H-pyrrolo[3,2-d]pyrimidine] came in with a melting point of 151 to 152 °C. Further, in series [2], the half-inhibitory concentration (IC50) was above 10 µM. Moreover, in series [4], the IC50 was above 10 µM.

`c1ccc(Nc2ncnc3c(-c4ccccc4)c[nH]c23)cc1` [26a, Ν,7-Diphenyl-5H-pyrrolo[3,2-d]pyrimidin-4-amine] gave a melting point above 250 °C. 2.75 ± 0.35 µM corresponded to half-maximal inhibition in series [2] (IC50). Besides, half-maximal inhibition in series [4] (IC50) was put at 6.2 ± 0.23 µM.

Compound `Fc1cccc(-c2c[nH]c3c(Nc4ccccc4)ncnc23)c1` [26b, 7-(3-Fluorophenyl)-Ν-phenyl-5H-pyrrolo[3,2-d]pyrimidin-4-amine] displayed a melting point above 250 °C. Besides, in series [2], the concentration for half-maximal inhibition (IC50) turned out to be 2.05 ± 0.05 µM. For the same compound, in series [5] (PC-3, 72 h), the “Cell cycle phase distribution G0/G1” value was 54.4 (±1.1) %, the “Cell cycle phase distribution G2/M” value was 24.9 (±1.6) % and the “Cell cycle phase distribution S” value was 20.7 (±02.7) %. Besides, in series [3], the “Selectivity Index HCT116” value was found to be 8.3, the “Selectivity Index PC-3” value is 8.7, the “cytotoxicity to normal cells in words” value is reported as “non-cytotoxic to the normal cell line” and half-maximal inhibition (IC50) required 17 ± 1.5 µM. In series [4], the 50% inhibitory concentration (IC50) stood at 1.95 ± 0.05 µM. Further, the apoptotic nuclei in series [6] was determined as 17.7%.

For the compound `COc1cc(Nc2ncnc3c(-c4ccccc4)c[nH]c23)cc(OC)c1OC` [26c, N-(3,4,5-Trimethoxyphenyl)-7-phenyl-5H-pyrrolo[3,2-d]pyrimidin-4-amine], the melting point is above 250 °C. Besides, the IC50 in series [2] stood at 7.8 ± 0.45 µM. The compound also came in with an IC50 in series [4] of 9.7 ± 0.5 µM.

With `COc1cc(Nc2ncnc3c(-c4cccc(F)c4)c[nH]c23)cc(OC)c1OC` [26d, 7-(3-Fluorophenyl)-N-(3,4,5-trimethoxyphenyl)-5H-pyrrolo[3,2-d]pyrimidin-4-amine], the melting point was in the range of 139 to 140 °C. Further, the IC50 in series [2] is 8.7 ± 0.58 µM. Besides, in series [4], half-maximal inhibition (IC50) was put at 5.9 ± 0.37 µM.

Regarding `CN1CCN(c2ncnc3c(-c4ccccc4)c[nH]c23)CC1` [26e, 4-(4-Methylpiperazin-1-yl)-7-phenyl-5H-pyrrolo[3,2-d]pyrimidine], the melting point is above 250 °C. Besides, in series [2], the IC50 was above 10 µM. Also, in series [4], the IC50 is above 10 µM.

On to `Fc1cccc(-c2n[nH]c3c(Nc4ccccc4)ncnc23)c1` [35b, 3-(3-Fluorophenyl)-Ν-phenyl-1H-pyrazolo[4,3-d]pyrimidin-7-amine], for which the melting point lay in the range of 237 to 238 °C. In addition, it took 2.3 ± 0.2 µM to reach half-maximal inhibition in series [2] (IC50). In series [5] (PC-3, 72 h), the “Cell cycle phase distribution G0/G1” value is 58.9 (±0.6) %, the “Cell cycle phase distribution G2/M” value is 24.9 (±2.4) % and the “Cell cycle phase distribution S” value was 16.3 (±1.8) %. Besides, in series [3], the “Selectivity Index HCT116” value was found to be 5.3, the “Selectivity Index PC-3” value amounted to 22.2, the “cytotoxicity to normal cells in words” value is reported as “non-cytotoxic to the normal cell line” and the half-inhibitory concentration (IC50) is 12.2 ± 1 µM. In series [4], this compound had a half-inhibitory concentration (IC50) of 0.55 ± 0.05 µM. Besides, in series [6], the apoptotic nuclei is reported as 11.5%.

As to `COc1cc(Nc2ncnc3c(-c4ccccc4)n[nH]c23)cc(OC)c1OC` [35c, 3-Phenyl-N-(3,4,5-trimethoxyphenyl)-1H-pyrazolo[4,3-d]pyrimidin-7-amine], the melting point is above 250 °C. The compound also returned an IC50 in series [2] of 4.7 ± 0.25 µM. The IC50 in series [4] is 5.7 ± 0.4 µM.

Take `COc1cc(Nc2ncnc3c(-c4cccc(F)c4)n[nH]c23)cc(OC)c1OC` [35d, 3-(3-Fluorophenyl)-N-(3,4,5-trimethoxyphenyl)-1H-pyrazolo[4,3-d]pyrimidin-7-amine]: the melting point was above 250 °C. Moreover, the IC50 in series [2] was above 10 µM. For the same compound, the IC50 in series [4] was above 10 µM.

With `COc1cccc2c1C(=O)c1c(O)c3c(c(O)c1C2=O)C[C@@](O)(C(=O)CO)C[C@@H]3O[C@H]1C[C@H](N)[C@H](O)[C@H](C)O1` [Dox, Doxorubicin, reference compound], the results for the IC50 in series [2] and in series [4] were 0.095 ± 0.01 µM and 0.025 ± 0.004 µM, respectively. The G2/M phase blockade in series [5] (setting [7]) is 58%. Moreover, the induction of apoptosis in series [6] (setting [7]) stood at 28%.

(Values after publication PMC8746528, “Novel Substituted Purine Isosteres: Synthesis, Structure-Activity Relationships and Cytotoxic Activity Evaluation” (Molecules, 2021).)
